Here are results for 3 compounds from US20220267380A1, “Glycopeptides Increasing Lipid Synthesis” (TFCHEM, priority 2019, published 2022).

The test system of test [1] is normal human dermal fibroblasts (NHDF). The experiment in a line: Identification of biological processes involved (DAVID / Gene Ontology functional annotation of modulated genes). The conditions noted are these: 10 mg/ml, p-value≤0.05. An excerpt:
Gene Ontology database has been more specifically used for the data interpretation. DAVID functional annotation part was used to cluster modulated genes into significant biological processes. […] DAVID database uses the Gene Ontology consortium (http://www.geneontology.org) vocabularies (GO terms) to describe gene products in terms of their associated biological processes. Among them, only biological processes with p-value≤0.05 were taken into account.
The gene modulations of NHDF treated with compound 1 (10 mg/ml), compound 3 (10 mg/ml) and compound 4 (10 mg/ml) vs control were analysed to cluster modulated genes into significant biological processes (p-value≤0.05).

For test [2] the test system is unchanged. The experiment in a line: Signal transduction pathway analysis (Ingenuity Pathway Analysis, activation z-score). The conditions noted are these: 10 mg/ml. The text has this: Signal transduction pathway analysis: the results were then processed with IPA (Ingenuity Pathway Analysis, Qiagen®) software to identify signal transduction pathways modulated by each treatment. This software takes into account the Fold Change values of each gene and, when there is enough information, the direction of modulation of the signal transduction pathways can be identified. The relevance of the effect of each treatment on a given pathway was quantified by z-score. The z-score predicts the directional change on that effect.
A more advanced bioinformatics analysis was performed using the Ingenuity Pathway Analysis software (IPA from Qiagen®). This analysis allows the identification of the impacted signaling pathways and predicts their modulation.

For the compound `C[C@H](NC(=O)[C@H](C)NC(=O)[C@@H](N)CCCCNCC(F)(F)[C@]1(O)O[C@H](CO)[C@H](O)[C@H](O)[C@H]1O)C(=O)O` [Compound 1], the “main biological processes involved” value in test [1] was “the lipid metabolic process and the cholesterol biosynthetic process”. Also, in test [2], the “result of the analysis of signaling pathways” value (“result” for short) is “predictive activation of the lipid synthesis and the cholesterol biosynthetic process at a transcriptional level”. In test [2] (positive = stimulation), the “Activation z-score, synthesis of cholesterol” value stood at 2.169 and the “Activation z-score, synthesis of lipid” value came to 2.668.

For `CC(=O)N(CCCC[C@H](N)C(=O)O)CC(F)(F)[C@]1(O)O[C@H](CO)[C@H](O)[C@H](O)[C@H]1O` [Compound 4], the “main biological processes involved” value in test [1] was “the lipid metabolic process and the cholesterol biosynthetic process but also the ceramide metabolic process”. Also, the “result” value in test [2] was “predictive activation of the fatty acid and lipid synthesis and a stimulation of the adipocytes differentiation”.

With `N[C@@H](CCCCNCC(F)(F)[C@]1(O)O[C@H](CO)[C@H](O)[C@H](O)[C@H]1O)C(=O)O` [Compound 3], the “main biological processes involved” value in test [1] is “the lipid metabolic process and the cholesterol biosynthetic process”. For the same compound, in test [2], the “result” value is “predictive activation of the lipid synthesis and the cholesterol biosynthetic process at a transcriptional level”. In test [2] (positive = stimulation), the “Activation z-score, Metabolism of cholesterol” value is 1.083; the “Activation z-score, synthesis of cholesterol” value is given as 0.399; the “Activation z-score, synthesis of lipid” value came to 1.002.
